Measurements reported in US12162935B2, “Regimens, compositions and methods with capsaicin and TNF-alpha inhibitor” (priority 2018, dated 2024).

Columns and labels:
UB/OC-1 cells [1] = assay: Western blot of STAT1, STAT3 and JAK2 phosphorylation; format: cell-based, mouse
UB/OC-1 cells [2] = assay: Cell viability assay (MTS assay); format: cell-based
Method: The in vitro UB/OC1 cell proliferation was performed by using the CellTiter 96® AQueous One Solution Cell Proliferation Assay Kit (Promega, Madison, WI), according to the manufacturer's instructions. 3,500 cells were seeded per well into a 96-well plate. […] After 48 h, 20 μl of CellTiter 96 AQueous One Solution reagent was added to each well in 100 μl of total volume of media. Cells were incubated for 1 h, and recorded absorbance at 490 nm using an ELISA plate reader. The absorbance is directly proportional to the number of living cells and is expressed as a percent relative to vehicle-treated cells.

Wistar rats = assay: ABR threshold shifts, cisplatin-induced hearing loss; format: in vivo, rat
Method: Adult male Wistar rats (200-350 g) (from Envigo) were used for this study. Rats were housed in a temperature controlled room with a twelve hour light/dark cycle. They had free access to commercial food and water provided by the SIU Laboratory Animal Care facility.
Prior to experiments, rats were anesthetized with ketamine HCl/xylazine mixture (24.6/3 mg/kg) and then placed in a sound-attenuation chamber (Industrial Acoustic Company, Inc.). Body temperature of the rats was maintained at 37° C. with an animal blanket system. Pretreatment auditory brainstem responses (ABRs) was performed using an IHS-High-frequency System (Intelligent Hearing Systems, Miami, FL). The rats were exposed to acoustic stimuli via HIS transducers that were directly placed at the entrance of the ear canal. ABR thresholds were obtained for 5 ms duration tone bursts at 8, 16 and 32 kHz at a rate of 50/s. Thresholds were determined by visually produced lowest intensity evoked potentials (EP) that progressed in 10 dB steps. Evoked potentials (Eps) were amplified to 200,000×, and were band pass filtered (100-3000 Hz) and averaged over 1024 sweeps [Mukherjea et al., 2010].
At the end of auditory testing, the anesthetized animals were decapitated and the cochlea harvested. The SIU Laboratory Animal Care and Use Committee approved all animal procedures.
Male Wistar rats were anesthetized using ketamine/xylazine cocktail. The tympanic membrane was punctured as described in [Mukherjea et al., 2010].

[3] = BCTC 100 nM 45 min then capsaicin 2.5 μM

SMILES: CC(C)(C)c1ccc(NC(=O)N2CCN(c3ncccc3Cl)CC2)cc1 [BCTC, N-(4-tertiarybutylphenyl)-4-(3-chloropyridin-2-yl) tetrahydropyrazine-1(2H)-carbox-amide]
- TRPV1 mediated STAT1-Ser^727 phosphorylation (UB/OC-1 cells [1]; [3]): decreases
- Tyr STAT3 phosphorylation (UB/OC-1 cells [1]; [3]): without significantly altering

SMILES: O=[N+]([O-])c1ccc2c(c1)S(=O)(=O)C=C2 [STATTIC]
- Tyr^705 p-STAT3 levels (UB/OC-1 cells [1]; STATTIC 100 nM): significantly reduced
- cell death (UB/OC-1 cells [2]; STATTIC 100 nM alone): did not induce cell death
- protective action of capsaicin against cisplatin-induced cell killing (UB/OC-1 cells [2]; STATTIC 100 nM pre-treatment): abrogated the protective action of capsaicin

SMILES: Cc1c(C(=O)NN2CCOCC2)nn(-c2ccc(Cl)cc2Cl)c1-c1ccc(I)cc1 [AM281]
- capsaicin-induced Ser^727 p-STAT1 (UB/OC-1 cells [1]): had no effect
- capsaicin-induced Tyr p-STAT3 (UB/OC-1 cells [1]): did not alter

SMILES: COc1ccc(C(=O)c2c(C)n(CCN3CCOCC3)c3cc(I)ccc23)cc1 [AM630]
- capsaicin-induced Ser^727 p-STAT1 (UB/OC-1 cells [1]): significantly decreased
- capsaicin-induced Tyr p-STAT3 (UB/OC-1 cells [1]): significantly decreased
- JWH015 increase of p-STAT3 (UB/OC-1 cells [1]; AM630 10 μM 30 min before JWH015): reversed
- cell viability compared to capsaicin (UB/OC-1 cells [2]; AM630 30 minutes prior to capsaicin for 24 h): significantly decreased cell viability
- ABR thresholds (Wistar rats; AM630 trans-tympanic alone or in combination with capsaicin): significant increases in ABR thresholds
- effect on capsaicin protection against cisplatin-induced hearing loss (Wistar rats; AM630 trans-tympanic before oral capsaicin 20 mg/kg and cisplatin): reversed the protective effect of oral capsaicin

SMILES: CCCn1c(C)c(C(=O)c2cccc3ccccc23)c2ccccc21 [JWH015]
- p-STAT3 (UB/OC-1 cells [1]; JWH015 10 μM 30 min): increased p-STAT3
